Structures are written as SMILES.

Sequence of H1047R PIK3CA enzyme (P42336 whole entry H1047R): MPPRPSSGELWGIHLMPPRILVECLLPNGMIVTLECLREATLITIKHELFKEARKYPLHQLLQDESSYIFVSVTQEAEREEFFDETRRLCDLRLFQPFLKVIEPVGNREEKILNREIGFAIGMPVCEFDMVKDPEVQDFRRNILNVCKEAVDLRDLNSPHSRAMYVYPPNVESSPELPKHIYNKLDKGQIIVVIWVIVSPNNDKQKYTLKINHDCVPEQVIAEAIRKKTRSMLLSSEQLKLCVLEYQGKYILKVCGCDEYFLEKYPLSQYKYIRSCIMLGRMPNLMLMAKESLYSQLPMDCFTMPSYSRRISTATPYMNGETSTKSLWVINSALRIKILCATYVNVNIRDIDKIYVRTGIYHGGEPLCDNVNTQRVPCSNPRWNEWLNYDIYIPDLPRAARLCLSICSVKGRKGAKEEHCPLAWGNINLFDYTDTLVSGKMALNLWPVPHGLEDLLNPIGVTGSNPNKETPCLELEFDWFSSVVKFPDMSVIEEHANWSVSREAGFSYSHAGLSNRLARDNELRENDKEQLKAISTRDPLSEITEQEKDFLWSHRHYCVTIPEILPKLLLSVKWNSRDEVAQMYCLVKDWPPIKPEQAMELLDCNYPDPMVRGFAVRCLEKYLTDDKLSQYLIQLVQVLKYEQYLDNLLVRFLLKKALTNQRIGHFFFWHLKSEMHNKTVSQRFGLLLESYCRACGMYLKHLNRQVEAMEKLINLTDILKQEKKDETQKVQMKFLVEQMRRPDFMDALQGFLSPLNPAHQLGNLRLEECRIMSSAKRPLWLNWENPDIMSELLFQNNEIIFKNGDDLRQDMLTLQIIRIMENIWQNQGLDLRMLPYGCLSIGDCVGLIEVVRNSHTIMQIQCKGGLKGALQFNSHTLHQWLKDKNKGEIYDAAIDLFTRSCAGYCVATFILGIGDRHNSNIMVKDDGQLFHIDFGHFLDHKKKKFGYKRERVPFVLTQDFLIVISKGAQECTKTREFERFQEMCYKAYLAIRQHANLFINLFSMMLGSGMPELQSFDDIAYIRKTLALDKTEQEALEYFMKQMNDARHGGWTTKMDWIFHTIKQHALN
Sequence of H1047R PIK3CA enzyme (P27986 whole entry partner): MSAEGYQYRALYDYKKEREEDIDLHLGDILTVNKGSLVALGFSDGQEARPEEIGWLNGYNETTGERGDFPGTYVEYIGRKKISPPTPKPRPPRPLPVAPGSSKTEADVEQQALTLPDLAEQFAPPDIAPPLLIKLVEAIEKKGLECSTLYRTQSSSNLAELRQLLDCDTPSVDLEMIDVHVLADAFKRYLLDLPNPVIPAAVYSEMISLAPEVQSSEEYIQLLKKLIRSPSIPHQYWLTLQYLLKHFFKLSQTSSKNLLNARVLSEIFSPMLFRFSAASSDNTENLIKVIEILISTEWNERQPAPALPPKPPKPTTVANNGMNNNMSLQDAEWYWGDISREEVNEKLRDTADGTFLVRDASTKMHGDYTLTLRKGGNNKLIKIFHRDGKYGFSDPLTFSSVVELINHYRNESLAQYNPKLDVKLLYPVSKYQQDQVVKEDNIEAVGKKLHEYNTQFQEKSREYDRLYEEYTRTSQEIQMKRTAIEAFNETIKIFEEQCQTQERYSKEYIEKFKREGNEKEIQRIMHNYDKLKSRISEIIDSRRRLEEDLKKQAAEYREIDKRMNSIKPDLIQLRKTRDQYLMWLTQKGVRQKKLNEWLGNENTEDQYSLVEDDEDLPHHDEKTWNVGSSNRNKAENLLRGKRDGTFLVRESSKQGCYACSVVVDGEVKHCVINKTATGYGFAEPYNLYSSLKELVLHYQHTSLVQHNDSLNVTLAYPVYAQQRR

The experiment has as its target H1047R PIK3CA enzyme (Homo sapiens, UniProt P42336, H1047R). Description: ADP-Glo Biochemical PIK3CA Kinase Assay. Background: In ADP-Glo the light output rises with the ADP produced.
In turn, `CCC[C@]1(O)CN(C(=O)Nc2cccc3c2[C@@H](c2cc(F)ccc2Cl)NC3=O)c2ccc(F)cc21` (single isomer, unassigned) [Compound I-2456] had a 50% inhibitory concentration (IC50) of 1 to 10 µM. For the compound `CCC[C@@]1(O)CN(C(=O)Nc2cccc3c2[C@@H](c2cc(F)ccc2Cl)NC3=O)c2ccc(F)cc21` (single isomer, unassigned) [Compound I-2457], the half-maximal inhibitory concentration (IC50) is 0.5 to 1 µM. To `CCC[C@]1(O)CN(C(=O)Nc2cccc3c2[C@H](c2cc(F)ccc2Cl)NC3=O)c2ccc(F)cc21` (single isomer, unassigned) [Compound I-2458] belongs 1 to 10 µM. With `CCC[C@@]1(O)CN(C(=O)Nc2cccc3c2[C@H](c2cc(F)ccc2Cl)NC3=O)c2ccc(F)cc21` (single isomer, unassigned) [Compound I-2459] the figure was 1 to 10 µM; with `CC[C@]1(O)CN(C(=O)Nc2cccc3c2[C@@H](c2cc(F)ccc2Cl)NC3=O)c2ccc(F)cc21` (single isomer, unassigned) [Compound I-2460], 1 to 10 µM; with `CC[C@]1(O)CN(C(=O)Nc2cccc3c2[C@H](c2cc(F)ccc2Cl)NC3=O)c2ccc(F)cc21` (single isomer, unassigned) [Compound I-2462], 1 to 10 µM. To `CC[C@@]1(O)CN(C(=O)Nc2cccc3c2[C@H](c2cc(F)ccc2Cl)NC3=O)c2ccc(F)cc21` (single isomer, unassigned) [Compound I-2463] belongs 1 to 10 µM. `N[C@]1(C(F)(F)F)CN(C(=O)Nc2cccc3c2[C@H](c2cc(F)ccc2Cl)NC3=O)c2ccc(F)cc21` (single isomer, unassigned) [Compound I-2472] yielded an IC50 of 0.5 to 1 µM.

On to `O=C1N[C@H](c2cc(F)ccc2Cl)c2c(NC(=O)N3C[C@H](O)c4cc(F)ccc43)cc(-c3cnn(C(F)F)c3)cc21` (single isomer, unassigned) [Compound I-2475], for which the concentration for half-maximal inhibition (IC50) is 1 to 10 µM.

On to `O=C1N[C@H](c2cc(F)ccc2Cl)c2c(NC(=O)N3C[C@@H](O)c4cc(F)ccc43)cc(-c3cnn(C(F)F)c3)cc21` (single isomer, unassigned) [Compound I-2476], for which the IC50 is 10 to 100 µM. `O=C1N[C@@H](c2cc(F)ccc2Cl)c2c(NC(=O)N3C[C@H](O)c4cc(F)ccc43)cc(-c3cnn(C(F)F)c3)cc21` (single isomer, unassigned) [Compound I-2478] gave an IC50 of 0.1 to 0.5 µM. `O=C1N[C@H](c2cc(F)ccc2Cl)c2c(NC(=O)N3C[C@@](O)(C(F)F)c4ccccc43)cccc21` (single isomer, unassigned) [Compound I-2484] returned an IC50 of 10 to 100 µM. With `O=C1N[C@@H](c2cc(F)ccc2Cl)c2c(NC(=O)N3C[C@](O)(C(F)F)c4ccccc43)cccc21` (single isomer, unassigned) [Compound I-2485] the figure was 1 to 10 µM; with `O=C1N[C@H](c2cc(F)ccc2Cl)c2c(NC(=O)N3C[C@](O)(C(F)F)c4ccccc43)cccc21` (single isomer, unassigned) [Compound I-2486], 10 to 100 µM. To `N#Cc1cc(NC(=O)N2C[C@H](O)c3cc(F)ccc32)c2c(c1)C(=O)N[C@H]2c1cc(F)ccc1Cl` (single isomer, unassigned) [Compound I-2491] belongs 0.1 to 0.5 µM; to `N#Cc1cc(NC(=O)N2C[C@@H](O)c3cc(F)ccc32)c2c(c1)C(=O)N[C@@H]2c1cc(F)ccc1Cl` (single isomer, unassigned) [Compound I-2492], 0.5 to 1 µM; to `N#Cc1cc(NC(=O)N2C[C@@H](O)c3cc(F)ccc32)c2c(c1)C(=O)N[C@H]2c1cc(F)ccc1Cl` (single isomer, unassigned) [Compound I-2493], 0.1 to 0.5 µM. To `O=C1N[C@H](c2cc(F)ccc2Cl)c2c(NC(=O)N3C[C@](O)(C(F)(F)F)c4cc(F)ccc43)ccc(-n3cccn3)c21` (single isomer, unassigned) [Compound I-2494] belongs 1 to 10 µM.

The compound `O=C1N[C@@H](c2cc(F)ccc2Cl)c2c(NC(=O)N3C[C@@](O)(C(F)(F)F)c4cc(F)ccc43)ccc(-n3cccn3)c21` (single isomer, unassigned) [Compound I-2495] yielded an IC50 of 10 to 100 µM. With `O=C1N[C@H](c2cc(F)ccc2Cl)c2c(NC(=O)N3C[C@@](O)(C(F)(F)F)c4cc(F)ccc43)ccc(-n3cccn3)c21` (single isomer, unassigned) [Compound I-2496] the figure was 1 to 10 µM; with `C[C@@H](C#N)Cn1cc(-c2cc(NC(=O)N3C[C@H](O)c4cc(F)ccc43)c3c(c2)C(=O)N[C@H]3c2cc(F)ccc2Cl)cn1` (single isomer, unassigned) [Compound I-2499], 1 to 10 µM; with `C[C@H](C#N)Cn1cc(-c2cc(NC(=O)N3C[C@H](O)c4cc(F)ccc43)c3c(c2)C(=O)N[C@@H]3c2cc(F)ccc2Cl)cn1` (single isomer, unassigned) [Compound I-2500], 0.1 to 0.5 µM. The compound `C[C@@H](C#N)Cn1cc(-c2cc(NC(=O)N3C[C@H](O)c4cc(F)ccc43)c3c(c2)C(=O)N[C@@H]3c2cc(F)ccc2Cl)cn1` (single isomer, unassigned) [Compound I-2501] had an IC50 of 0.1 to 0.5 µM. Regarding `C[C@H](C#N)Cn1cc(-c2cc(NC(=O)N3C[C@@H](O)c4cc(F)ccc43)c3c(c2)C(=O)N[C@H]3c2cc(F)ccc2Cl)cn1` (single isomer, unassigned) [Compound I-2502], the IC50 fell in the range of 1 to 10 µM. With `C[C@@H](C#N)Cn1cc(-c2cc(NC(=O)N3C[C@@H](O)c4cc(F)ccc43)c3c(c2)C(=O)N[C@@H]3c2cc(F)ccc2Cl)cn1` (single isomer, unassigned) [Compound I-2504] the figure was 1 to 10 µM; with `C[C@@H](C#N)Cn1cc(-c2cc(NC(=O)N3C[C@@H](O)c4cc(F)ccc43)c3c(c2)C(=O)N[C@@H]3c2cc(F)ccc2Cl)cn1` (single isomer, unassigned) [Compound I-2505], 1 to 10 µM; with `O=C1N[C@H](c2cc(F)ccc2Cl)c2c(NC(=O)N3C[C@@](O)(C(F)(F)F)c4ccccc43)cc(Cl)cc21` (single isomer, unassigned) [Compound I-2506], 1 to 10 µM. With `O=C1N[C@@H](c2cc(F)ccc2Cl)c2c(NC(=O)N3C[C@](O)(C(F)(F)F)c4ccccc43)cc(Cl)cc21` (single isomer, unassigned) [Compound I-2507] the figure was 1 to 10 µM; with `O=C1N[C@H](c2cc(F)ccc2Cl)c2c(NC(=O)N3C[C@](O)(C(F)(F)F)c4ccccc43)cc(Cl)cc21` (single isomer, unassigned) [Compound I-2508], 1 to 10 µM. To `O=C1N[C@H](c2cc(F)ccc2Cl)c2c(NC(=O)N3C[C@@](O)(C(F)(F)F)c4cc(F)ccc43)cc(Cl)cc21` (single isomer, unassigned) [Compound I-2510] belongs 1 to 10 µM; to `O=C1N[C@@H](c2cc(F)ccc2Cl)c2c(NC(=O)N3C[C@](O)(C(F)(F)F)c4cc(F)ccc43)cc(Cl)cc21` (single isomer, unassigned) [Compound I-2511], 0.1 to 0.5 µM. Consider `O=C1N[C@H](c2cc(F)ccc2Cl)c2c(NC(=O)N3C[C@](O)(C(F)(F)F)c4cc(F)ccc43)cc(Cl)cc21` (single isomer, unassigned) [Compound I-2512], for which the IC50 was in the range of 1 to 10 µM. With `O=C1N[C@H](c2cc(F)ccc2Cl)c2c(NC(=O)N3C[C@@](O)(C(F)(F)F)c4cc(F)ccc43)cccc21` (single isomer, unassigned) [Compound I-2514], the IC50 fell in the range of 10 to 100 µM.

Take `O=C1N[C@@H](c2cc(F)ccc2Cl)c2c(NC(=O)N3C[C@](O)(C(F)(F)F)c4cc(F)ccc43)cccc21` (single isomer, unassigned) [Compound I-2515]: the IC50 is 1 to 10 µM. Take `O=C1N[C@H](c2cc(F)ccc2Cl)c2c(NC(=O)N3C[C@](O)(C(F)(F)F)c4cc(F)ccc43)cccc21` (single isomer, unassigned) [Compound I-2516]: the half-maximal inhibitory concentration (IC50) was in the range of 1 to 10 µM. `O=C1N[C@@H](c2cc(F)ccc2Cl)c2c(NC(=O)N3C[C@@](O)(C(F)(F)F)c4cc(F)ccc43)ccc(-n3ccnn3)c21` (single isomer, unassigned) [Compound I-2523] returned a concentration for half-maximal inhibition (IC50) of 1 to 10 µM.

`O=C1N[C@H](c2cc(F)ccc2Cl)c2c(NC(=O)N3C[C@@](O)(C(F)(F)F)c4cc(F)ccc43)ccc(-n3ccnn3)c21` (single isomer, unassigned) [Compound I-2524] yielded an IC50 of 1 to 10 µM. To `O=C1N[C@H](c2cc(F)ccc2Cl)c2c(NC(=O)N3C[C@](O)(C(F)(F)F)c4cc(F)ccc43)ccc(-n3nccn3)c21` (single isomer, unassigned) [Compound I-2526] belongs 1 to 10 µM. `O=C1N[C@@H](c2cc(F)ccc2Cl)c2c(NC(=O)N3C[C@@](O)(C(F)(F)F)c4cc(F)ccc43)ccc(-n3nccn3)c21` (single isomer, unassigned) [Compound I-2527] showed an IC50 of 1 to 10 µM.

Compound `O=C1N[C@@H](c2cc(F)ccc2Cl)c2c(NC(=O)N3C[C@](O)(C(F)(F)F)c4cc(F)ccc43)cc(-n3ccccc3=O)cc21` (single isomer, unassigned) [Compound I-2529] came in with an IC50 of 1 to 10 µM. As for `O=C1N[C@@H](c2cc(F)ccc2Cl)c2c(NC(=O)N3C[C@@](O)(C(F)(F)F)c4cc(F)ccc43)cc(-n3ccccc3=O)cc21` (single isomer, unassigned) [Compound I-2530], the IC50 was 1 to 10 µM. In turn, `O=C1N[C@H](c2cc(F)ccc2Cl)c2c(NC(=O)N3C[C@](O)(C(F)(F)F)c4cc(F)ccc43)cc(-n3ccccc3=O)cc21` (single isomer, unassigned) [Compound I-2531] registered an IC50 of 1 to 10 µM. To `O=C1N[C@@H](c2cc(F)ccc2Cl)c2c(NC(=O)N3C[C@](O)(C(F)(F)F)c4cc(F)ccc43)cc(-n3ncccc3=O)cc21` (single isomer, unassigned) [Compound I-2533] belongs 1 to 10 µM. To `O=C1N[C@@H](c2cc(F)ccc2Cl)c2c(NC(=O)N3C[C@@](O)(C(F)(F)F)c4cc(F)ccc43)cc(-n3ncccc3=O)cc21` (single isomer, unassigned) [Compound I-2534] belongs 0.5 to 1 µM. With `O=C1N[C@H](c2cc(F)ccc2Cl)c2c(NC(=O)N3C[C@](O)(C(F)(F)F)c4cc(F)ccc43)cc(-n3ncccc3=O)cc21` (single isomer, unassigned) [Compound I-2535] the figure was 1 to 10 µM.

What is called IC50 is the concentration at which inhibition is half-maximal. A higher IC50 goes with a need for much substance.

The values above are taken from patent publication US12581252B2, “Substituted pyrrolo[3,4-b]pyridines as PI3K-α inhibitors” (Relay Therapeutics, Inc., priority 2020, dated 2026).
